Source: patent US8232407B2, “Nitrogenous heterocyclic compounds with insecticidal activity, and the preparation and use thereof” (East China University of Science and Technology, priority 2008, dated 2012)

What was measured:
Type in all cases: in vivo
[1] = test system: Pseudaletia separate Walker; test: Insecticidal activities to armyworm, leaf dipping and feeding
Method in brief: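 Maize leaves dipped 3 s in acetone-formulated compound at 500 down to 1.57 ppm, dried and fed to armyworms, 10 insects per treatment in triplicate, aqueous acetone as control. Mortality was counted after 24 hours and corrected against control survival.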

[2] = test system: Nilaparvata lugens; test: Insecticidal activities to plant hopper, spraying method; settings: for Nilaparvata lugens Mortality (%) 500 ppm: in vivo; for mortality at 500 ppm: Nilaparvata lugens, spraying method, counted after 24 hours, read-out: Nilaparvata lugens Mortality (%) 500 ppm
Method in brief: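 Nilaparvata lugens, 10 insects per tumbler, sprayed with 2 ml compound in acetone at 0.79-500 ppm, three replicates, aqueous acetone control. Dead insects counted after 24 h; mortality corrected against control survival.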

[3] = test system: Aphis craccivoral; test: Insecticidal activities to aphids, immersion method; settings: for Aphis craccivoral Mortality (%) 500 ppm: in vivo; for mortality at 500 ppm: Aphis, immersion method, read-out: Aphis craccivoral Mortality (%) 500 ppm
Method in brief: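 Wingless adult aphids feeding on bean sprouts were dipped 5 s in 500 ppm compound (DMF stock diluted in 0.2 mL/L aqueous Triton X-100), blotted and held at 23° C. Dead counted at 24 h, three replicates; mortality corrected against Triton-only controls.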

[4] = test system: Plutella xylostella; test: Insecticidal activities to diamondback moth, feeding dipped leaves; settings: for Plutella xylostella Mortality (%) 500 ppm: in vivo; for mortality at 500 ppm: Plutella xylostella, feeding dipped leaves, counted after 24 hours, read-out: Plutella xylostella Mortality (%) 500 ppm
Method in brief: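 Leaf-dip feeding assay: fresh cabbage leaves dipped 3 s in test solution, air-dried and fed to Plutella xylostella, 10 insects per treatment, three replicates, water control. Deaths counted after 24 h; mortality corrected against survival in the control group.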

[5] = 500 ppm, leaf dipping and feeding, counted after 24 hours

Row | Structure (SMILES) | Pseudaletia separate Walker Mortality (%) 500 ppm ([1]; in vivo) | Nilaparvata lugens Mortality (%) 500 ppm [2] | Aphis craccivoral Mortality (%) 500 ppm [3] | Plutella xylostella Mortality (%) 500 ppm [4] | Pseudaletia separate Walker Mortality (%) 500 ppm [1, 5] | mortality at 500 ppm [2] | mortality at 500 ppm [3] | mortality at 500 ppm [4]
1 | C[N+]1=C(C(=Cc2cccs2)[N+](=O)[O-])N(Cc2ccc(Cl)nc2)CC1.[Cl-] [Compound 259] | 100% | 100% | 100% | 100% | – | – | – | –
2 | O=[N+]([O-])/C(=C/c1ccoc1)C1=NCCN1Cc1ccc(Cl)nc1 [Compound 2, 2-chloro-5-((2-(2-(furan-3-yl)-1-nitrovinyl)-4,5-dihydro-imidazol-1-yl)-methyl) pyridine] | – | – | – | – | 100% | 100% | 100% | 100%
3 | O=[N+]([O-])/C(=C/c1ccco1)C1=NCCCN1Cc1ccc(Cl)nc1 [Compound 46, 1-((6-chloropyridin-3-yl)methyl)-2-(2-(furan-2-yl)-1-nitrovinyl)-1,4,5,6-tetrahydropyrimidine] | – | – | – | – | 100% | 100% | 100% | 100%
4 | O=[N+]([O-])C(=Cc1ccsc1)C1=NCCCN1Cc1ccc(Cl)nc1 [Compound 62] | 100% | 100% | 90% | 100% | – | – | – | –
5 | O=[N+]([O-])C(=Cc1cc(Cl)co1)C1=NCCN1Cc1cnc(Cl)s1 [Compound 73] | 100% | 100% | 100% | 100% | – | – | – | –
6 | C[N+]1=C(C(=Cc2cc(Cl)c(Cl)o2)[N+](=O)[O-])N(Cc2ccc(Cl)nc2)CC1.[Cl-] [Compound 251] | 100% | 100% | 100% | 100% | – | – | – | –
7 | O=[N+]([O-])C(=Cc1oc(Br)cc1Br)C1=NCCN1Cc1cnc(Cl)s1 [Compound 78] | 100% | 100% | 100% | 100% | – | – | – | –
8 | C[N+]1=C(C(=Cc2ccc(Cl)o2)[N+](=O)[O-])N(Cc2ccc(Cl)nc2)CC1.[Cl-] [Compound 247] | 100% | 100% | 100% | 100% | – | – | – | –
9 | O=[N+]([O-])C(=Cc1cc(Br)co1)C1=NCCCN1Cc1ccc(Cl)nc1 [Compound 52] | 100% | 100% | 100% | 100% | – | – | – | –
10 | O=[N+]([O-])C(=Cc1ccc([N+](=O)[O-])o1)C1=NCCCN1Cc1ccc(Cl)nc1 [Compound 48] | 100% | 100% | 100% | 100% | – | – | – | –
11 | CC(c1ccc(Cl)nc1)N1CCN=C1C(=Cc1cccs1)[N+](=O)[O-] (racemic) [Compound 127] | 100% | 100% | 100% | 100% | – | – | – | –
12 | CCc1ccc(C=C(C2=[N+](C)CCN2Cc2ccc(Cl)nc2)[N+](=O)[O-])o1.[Cl-] [Compound 257] | 100% | 100% | 100% | 100% | – | – | – | –
13 | CCc1ccc(C=C(C2=NCCN2Cc2ccc(Cl)nc2)[N+](=O)[O-])o1 [Compound 14] | 100% | 100% | 100% | 100% | – | – | – | –
14 | C[N+]1=C(C(=Cc2cc(Cl)co2)[N+](=O)[O-])N(Cc2ccc(Cl)nc2)CC1.[Cl-] [Compound 249] | 100% | 100% | 100% | 100% | – | – | – | –
15 | O=[N+]([O-])C(=Cc1cc(Cl)co1)C1=NCCN1CC1CCOC1 (stereo not drawn) [Compound 96] | 58% | 50% | 32% | 52% | – | – | – | –
16 | O=[N+]([O-])C(=Cc1cccs1)C1=NCCCN1Cc1ccc(Cl)nc1 [Compound 61] | 100% | 100% | 100% | 100% | – | – | – | –
17 | C[N+]1=C(C(=Cc2ccc(Br)s2)[N+](=O)[O-])N(Cc2ccc(Cl)nc2)CC1.[Cl-] [Compound 263] | 100% | 100% | 100% | 100% | – | – | – | –
18 | O=[N+]([O-])C(=Cc1ccc(Cl)s1)C1=NCCCN1Cc1ccc(Cl)nc1 [Compound 64] | 100% | 100% | 100% | 100% | – | – | – | –
19 | CC[N+]1=C(C(=Cc2ccc(Cl)s2)[N+](=O)[O-])N(Cc2ccc(Cl)nc2)CC1.[Cl-] [Compound 294] | 100% | 100% | 100% | 100% | – | – | – | –
20 | CC(c1ccc(Cl)nc1)N1CCN=C1C(=Cc1ccc(Br)o1)[N+](=O)[O-] (racemic) [Compound 126] | 100% | 100% | 100% | 100% | – | – | – | –
21 | O=[N+]([O-])C(=Cc1ccc(CO)o1)C1=NCCCN1Cc1ccc(Cl)nc1 [Compound 60] | 84% | 56% | 47% | 100% | – | – | – | –
22 | C[N+]1=C(C(=Cc2cc(Br)cs2)[N+](=O)[O-])N(Cc2ccc(Cl)nc2)CC1.[Cl-] [Compound 265] | 100% | 100% | 100% | 100% | – | – | – | –
23 | O=[N+]([O-])C(=Cc1ccc(Cl)o1)C1=NCCN1Cc1ccc(Cl)nc1 [Compound 4] | 100% | 100% | 100% | 100% | – | – | – | –
24 | CC(c1ccc(Cl)nc1)N1CCN=C1C(=Cc1ccoc1)[N+](=O)[O-] (racemic) [Compound 123] | 100% | 100% | 100% | 100% | – | – | – | –
25 | CC(=C(C1=NCCN1Cc1ccc(Cl)nc1)[N+](=O)[O-])c1ccc([N+](=O)[O-])s1 [Compound 117] | 77% | 88% | 83% | 86% | – | – | – | –
26 | O=[N+]([O-])C(=Cc1cc(Br)c(Br)o1)C1=NCCN1Cc1cnc(Cl)s1 [Compound 77] | 100% | 100% | 100% | 100% | – | – | – | –
27 | CC(c1ccc(Cl)nc1)N1CCN=C1C(=Cc1ccco1)[N+](=O)[O-] (racemic) [Compound 121] | 100% | 100% | 100% | 56% | – | – | – | –
